These results are taken from patent US7582638B2, “Pyrazole-isoquinoline urea derivatives as p38 kinase inhibitors” (Eli Lilly and Company, priority 2005, dated 2009).

This assay has as its system pMAPKAPK2. Nature of the assay: Inhibition of p-MAPKAPK2 in vitro (anisomycin-stimulated RAW 264.7 cells, ELISA). The class given is cell-based, murine. The conditions noted are these: Mus musculus, RAW264.7, p-MAPKAPK2 in vitro, read-out: IC50. Here is the method:
RAW 264.7 cells (a murine monocytic/macrophage line ATCC) are seeded at a density of 50,000 cells/well in 96-well plates with RPMI-1640 medium plus 10% fetal bovine serum (FBS) and allowed to settle and adhere to the bottom of the well for 48 hours. After reaching confluence, cells are treated for 2 hours with 10 serial dilutions of different compounds. A control compound is always included. After 2 hours, anisomicin (100 ug/ml) is added and cells are incubated for 30 minutes at 37° C. under a 5% CO2 atmosphere. Then, cells are fixed and treated with hydrogen peroxide in order to remove endogenous peroxidase. Finally, plates are blocked with FBS, washed, and an ELISA assay is carried out by using an antiphospho-MAPKAPK2 (Thr 334, Cell Signalling, Cat # 3041) antibody and ahP-Conjugated Secondary Antibody. This reaction is detected by using FEMTO (Pierce) which is an enhanced chemiluminiscent substrate ahP that results in rapid kinetic light output and high signal intensity. The compound exemplified in Example 12 is tested essentially as described above and is found to inhibit the pMAPKAPK2 enzyme production with an IC50 of 7 nM.
On the technique in general: In an ELISA, binding on a coated surface is turned into a signal by an enzyme label.

Counter-ions that a name gives are not always drawn.

Regarding `Cc1ccc(-n2nc(C3(C)CC3)cc2NC(=O)Nc2cnc(N3CCN(C(=O)C4CC4)CC3)c3ccccc23)cc1` [Example 1, 1-[1-(4-Cyclopropanecarbonyl-piperazin-1-yl)-isoquinolin-4-yl]-3-[5-(1-methyl-cyclopropyl)-2-p-tolyl-2H-pyrazol-3-yl]-urea], the IC50 (usually the concentration that gives 50% inhibition) turned out to be 0.044 µM.
As for `Cc1ccc(-n2nc(C3(C)CC3)cc2NC(=O)Nc2cnc(N3CCN(C(=O)c4c(F)cccc4F)CC3)c3ccccc23)cc1` [Example 3, 1-{1-[4-(2,6-Difluoro-benzoyl)-piperazin-1-yl]-isoquinolin-4-yl}-3-[5-(1-methyl-cyclopropyl)-2-p-tolyl-2H-pyrazol-3-yl]-urea], the figure is 0.025 µM; as for `COC1(c2cc(NC(=O)Nc3cnc(OC4CCN(C(=O)C5(C)CC5)CC4)c4ccccc34)n(-c3ccc(C)cc3)n2)CC1` [Example 9, 1-[5-(1-Methoxy-cyclopropyl)-2-p-tolyl-2H-pyrazol-3-yl]-3-{1-[1-(1-methyl-cyclopropanecarbonyl)-piperidin-4-yloxy]-isoquinolin-4-yl}-urea mesylate], 0.101 µM; as for `Cc1ccc(-n2nc(C(C)(C)C)cc2NC(=O)Nc2cnc(OC3CCN(C(N)=O)CC3)c3ccccc23)cc1` [Example 23], 0.125 µM.
